Experimental data taken from patent US20260327240A1, “1,4-CINEOLE DERIVATIVE AND INTERMEDIATE THEREOF, HERBICIDE CONTAINING SAID DERIVATIVE AS ACTIVE INGREDIENT, METHOD FOR USING HERBICIDE, AND METHOD FOR PREPARING AGROCHEMICAL COMPOSITION” (HOKKO CHEMICAL INDUSTRY CO., LTD., priority 2023, published 2026).

Columns and labels:
Format in all cases: in vivo
[1] = test system: Lindemia pyxidaria; experiment: Test Example 2: herbicidal effect test by application during growth period of paddy rice; settings: 7 days after sowing, 120 g per 10 ares, 14 days after application, read-out: weed inhibition rate
Procedure: (§1) Herbicidal Effect Test by Application During Growth Period of Paddy Rice
(§2) Wagner pots with an area of 1/10,000 […] were filled with paddy soil, followed by addition of water and incorporation of chemical fertilizer (N:P:K=16:16:16), after which puddling was performed. After that, seeds of Echinochloa crus-galli var. formosensis, broad-leaved weeds (Lindemia pyxidaria, and Monochoria vaginalis), and Scirpus juncoides were sown at a depth of 0 cm to 1 cm, 30 seeds each. Immediately after sowing, the pots were flooded and a water depth of approximately 3 cm was maintained. Subsequent management was conducted in a glass greenhouse. Seven days after sowing, an emulsifiable concentrate prepared according to Formulation Example 5 using the compound shown below was diluted with water, and a specified amount of the diluted solution was applied by dropper. The amount of the active ingredient to be applied was equivalent to 120 g per 10 ares. The test was conducted in duplicate for each chemical concentration group, and the herbicidal effect was evaluated 14 days after chemical application using the same criteria as in Test Example 1.

[2] = test system: Scirpus juncoides; experiment: as above; settings: 7 days after sowing, 120 g per 10 ares, 14 days after application
Procedure: as §1, §2

[3] = test system: Echinochloa crus-galli var. formosensis; experiment: as above; settings: 7 days after sowing, 120 g per 10 ares, 14 days after application; for inhibition at 1200 g/ha: Echinochloa crus-galli, read-out: weed inhibition rate
Procedure: as §1, §2

[4] = test system: Echinochloa crus-galli; experiment: Test Example 4: herbicidal effect test by stem and leaf treatment in upland field; settings: 7 days after sowing, 120 g per 10 ares, 14 days after application; for inhibition at 1200 g/ha: Echinochloa crus-galli, read-out: weed inhibition rate
Procedure: (§3) Herbicidal Effect Test by Stem and Leaf Treatment in Upland Field
(§4) Pots with an area of 36 cm^2 were filled with upland soil (alluvial loam), twenty seeds each of weeds of Digitaria ciliaris, Echinochloa crus-galli, Chenopodium album, and Amaranthus viridis were uniformly mixed with the top 1 cm layer of soil and the surface was lightly pressed down. Seven days after sowing, an emulsifiable concentrate prepared according to Formulation Example 5 using the compound shown below was diluted with water, and the diluted solution was sprayed onto the soil surface at a rate of 100 liters per 10 ares. The amount of the active ingredient to be applied was equivalent to 120 g per 10 ares. Fourteen days after chemical application, the herbicidal effect was evaluated according to the same criteria as in Test Example 1.

[5] = test system: Digitaria ciliaris; experiment: as above; settings: 7 days after sowing, 120 g per 10 ares, 14 days after application; for inhibition at 1200 g/ha: Digitaria ciliaris, read-out: weed inhibition rate
Procedure: as §3, §4

[6] = test system: Echinochloa crus-galli; experiment: Test Example 3: herbicidal effect test by soil application in upland field; settings: 1 day after sowing, 120 g per 10 ares, 14 days after application; for inhibition at 1200 g/ha: Echinochloa crus-galli, read-out: weed inhibition rate
Procedure: (§5) Herbicidal Effect Test by Soil Application in Upland Field
as §4, with “One day” for “Seven days”

[7] = test system: Digitaria ciliaris; experiment: as above; settings: 1 day after sowing, 120 g per 10 ares, 14 days after application; for inhibition at 1200 g/ha: Digitaria ciliaris, read-out: weed inhibition rate
Procedure: as §5
as §4, with “One day” for “Seven days”

[8] = test system: Scirpus juncoides; experiment: Test Example 1: herbicidal effect test by soil application in paddy rice; settings: 120 g per 10 ares, 14 days after application
Procedure: (§6) Herbicidal Effect Test by Soil Application in Paddy Rice
as §2, with “(Lindernia pyxidaria” for “(Lindemia pyxidaria,”, “Immediately thereafter,” for “Seven days after sowing,”, “ares.” for “ares. The test was conducted in duplicate for each chemical concentration group, and the herbicidal effect was evaluated 14 days after chemical application using the same criteria as in Test Example 1.”
(§7) The present test was conducted in duplicate for each chemical concentration group, and the weed inhibition rate (%) was determined 14 days after chemical application using the following formula (Math. 1).

[9] = test system: Echinochloa crus-galli var. formosensis; experiment: as above; settings: 120 g per 10 ares, 14 days after application; for inhibition at 1200 g/ha: Echinochloa crus-galli, 336 h, read-out: weed inhibition rate
Procedure: as §6
as §2, with “(Lindernia pyxidaria” for “(Lindemia pyxidaria,”, “Immediately thereafter,” for “Seven days after sowing,”, “ares.” for “ares. The test was conducted in duplicate for each chemical concentration group, and the herbicidal effect was evaluated 14 days after chemical application using the same criteria as in Test Example 1.”
as §7

COC1(OC)C[C@]2(C)O[C@@]1(C(C)C)C[C@H]2OCc1ccccc1F [1-935, (1R,4S,5R)-5-((2-fluorobenzyl)oxy)-1-isopropyl-2,2-dimethoxy-4-methyl-7-oxabicyclo[2.2.1]heptane]
inhibition at 1200 g/ha [1]: ≥ 80%

C=CCO[C@@H]1C[C@]2(C)O[C@@]1(C(C)C)C[C@H]2OCc1ccccc1F [1-930, (1S,2R,4R,5R)-2-[(2-fluorophenyl)methoxy]-1-methyl-4-isopropyl-5-prop-2-enoxy-7-oxabicyclo[2.2.1]heptane]
inhibition at 1200 g/ha [1]: ≥ 80%

Cc1ccccc1CO[C@@H]1C[C@]2(C(C)C)O[C@@]1(C)C[C@@H]2F [1-2, (1R,2S,4S,5R)-2-fluoro-1-isopropyl-4-methyl-5-((2-methylbenzyl)oxy)-7-oxabicyclo[2.2.1]heptane]
inhibition at 1200 g/ha [1]: ≥ 80%

C=C1C[C@]2(C)O[C@@]1(C(C)C)C[C@H]2OCc1ccccc1C [2-72, (1R,4S,5R)-1-isopropyl-4-methyl-5-((2-methylbenzyl)oxy)-2-methylene-7-oxabicyclo[2.2.1]heptane]
inhibition at 1200 g/ha [1]: ≥ 80%

CC(=O)O[C@H]1C[C@]2(C)O[C@@]1(C(C)C)C[C@H]2OCc1ccccc1F [1-480, [(1R,2S,4S,5R)-5-[(2-fluorophenyl)methoxy]-4-methyl-1-isopropyl-7-oxabicyclo[2.2.1]heptan-2-yl]acetate]
weed inhibition rate [2]: ≥ 80% | weed inhibition rate [3]: ≥ 80% | weed inhibition rate [4]: ≥ 80% | weed inhibition rate [5]: ≥ 80% | weed inhibition rate [6]: ≥ 80% | weed inhibition rate [7]: ≥ 80% | weed inhibition rate [8]: ≥ 80% | weed inhibition rate [9]: ≥ 80%

CC(C)[C@]12C[C@@H](OCc3cccc(F)c3)[C@](C)(CC1=O)O2 [2-351, (1R,4S,5R)-5-((3-fluorobenzyl)oxy)-1-isopropyl-4-methyl-7-oxabicyclo[2.2.1]heptan-2-one]
inhibition at 1200 g/ha [1]: ≥ 80%

CC(C)[C@]12C[C@@H](OCc3cccc(C(F)(F)F)c3)[C@](C)(C[C@@H]1Br)O2 [1-701, (1S,2R,4R,5S)-5-bromo-1-methyl-4-isopropyl-2-[[3-(trifluoromethyl)phenyl]methoxy]-7-oxabicyclo[2.2.1]heptane]
inhibition at 1200 g/ha [3]: ≥ 80% | inhibition at 1200 g/ha [4]: ≥ 80% | inhibition at 1200 g/ha [5]: ≥ 80% | inhibition at 1200 g/ha [6]: ≥ 80% | inhibition at 1200 g/ha [7]: ≥ 80% | inhibition at 1200 g/ha [9]: ≥ 80%

C=C1C[C@]2(C)O[C@@]1(C(C)C)C[C@H]2OCc1ccccc1F [2-88, (1R,4S,5R)-5-((2-fluorobenzyl)oxy)-1-isopropyl-4-methyl-2-methylene-7-oxabicyclo[2.2.1]heptane]
inhibition at 1200 g/ha [1]: ≥ 80%

Cc1cccc(CO[C@@H]2C[C@]3(C(C)C)O[C@@]2(C)CC3=O)c1 [2-352, (1R,4S,5R)-1-isopropyl-4-methyl-5-((3-methylbenzyl)oxy)-7-oxabicyclo[2.2.1]heptan-2-one]
inhibition at 1200 g/ha [1]: ≥ 80%

CC(C)[C@]12C[C@@H](OCc3ccccc3F)[C@](C)(C[C@@H]1OCc1ccccc1)O2 [1-1606, (1S,2R,4R,5S)-2-[(2-fluorophenyl)methoxy]-1-methyl-5-phenylmethoxy-4-isopropyl-7-oxabicyclo[2.2.1]heptane]
inhibition at 1200 g/ha [3]: ≥ 80% | inhibition at 1200 g/ha [4]: ≥ 80% | inhibition at 1200 g/ha [5]: ≥ 80% | inhibition at 1200 g/ha [6]: ≥ 80% | inhibition at 1200 g/ha [7]: ≥ 80% | inhibition at 1200 g/ha [9]: ≥ 80%

Cc1cccc(C)c1CO[C@@H]1C[C@]2(C(C)C)O[C@@]1(C)CC2=O [2-5, (1R,4S,5R)-5-((2,6-dimethylbenzyl)oxy)-1-isopropyl-4-methyl-7-oxabicyclo[2.2.1]heptan-2-one]
inhibition at 1200 g/ha [1]: ≥ 80%

CC(C)[C@]12C[C@@H](OCc3c(F)cccc3F)[C@](C)(CC1=O)O2 [2-20, (1R,4S,5R)-5-((2,6-difluorobenzyl)oxy)-1-isopropyl-4-methyl-7-oxabicyclo[2.2.1]heptan-2-one]
inhibition at 1200 g/ha [1]: ≥ 80%

CC(C)[C@]12C[C@@H](OCc3ccccc3F)[C@](C)(C[C@H]1OCC1CC1)O2 [1-921, (1S,2R,4R,5R)-5-(cyclopropylmethoxy)-2-[(2-fluorophenyl)methoxy]-1-methyl-4-isopropyl-7-oxabicyclo[2.2.1]heptane]
inhibition at 1200 g/ha [1]: ≥ 80%

CC(C)[C@]12C[C@@H](OCc3ccc(F)cc3)[C@](C)(CC1=O)O2 [2-349, (1R,4S,5R)-5-((4-fluorobenzyl)oxy)-1-isopropyl-4-methyl-7-oxabicyclo[2.2.1]heptan-2-one]
inhibition at 1200 g/ha [1]: ≥ 80%

CC(C)[C@]12C[C@@H](OCc3ccccc3Cl)[C@](C)(CC1=O)O2 [2-11, (1R,4S,5R)-5-((2-chlorobenzyl)oxy)-1-isopropyl-4-methyl-7-oxabicyclo[2.2.1]heptan-2-one]
inhibition at 1200 g/ha [1]: ≥ 80%

CC(C)[C@]12C[C@@H](OCc3ccccc3C#N)[C@](C)(C[C@@H]1Br)O2 [1-703, 2-[[(1S,2R,4R,5S)-5-bromo-1-methyl-4-isopropyl-7-oxabicyclo[2.2.1]heptan-2-yl]oxymethyl]benzonitrile]
inhibition at 1200 g/ha [1]: ≥ 80%

CC(C)=CCO[C@@H]1C[C@]2(C(C)C)O[C@@]1(C)C[C@@H]2Br [1-672, (1S,2R,4R,5S)-5-bromo-1-methyl-2-(3-methylbut-2-enoxy)-4-isopropyl-7-oxabicyclo[2.2.1]heptane]
inhibition at 1200 g/ha [1]: ≥ 80%

CC(C)[C@]12C=C[C@](C)(O1)[C@H](OCc1ccccc1F)C2 [3-5, (1R,4S,5R)-5-[(2-fluorophenyl)methoxy]-4-methyl-1-isopropyl-7-oxabicyclo[2.2.1]hept-2-ene]
inhibition at 1200 g/ha [1]: ≥ 80%

CC(C)[C@]12C[C@@H](OCc3ccccc3F)[C@](C)(C[C@@H]1Br)O2 [1-19, (1S,2R,4R,5S)-5-bromo-2-[(2-fluorophenyl)methoxy]-1-methyl-4-isopropyl-7-oxabicyclo[2.2.1]heptane]
inhibition at 1200 g/ha [1]: ≥ 80%

Cc1ccccc1CO[C@@H]1C[C@]2(C(C)C)O[C@@]1(C)CC2=O [2-3, (1R,4S,5R)-1-isopropyl-4-methyl-5-((2-methylbenzyl)oxy)-7-oxabicyclo[2.2.1]heptan-2-one]
inhibition at 1200 g/ha [1]: ≥ 80%

C#CCO[C@@H]1C[C@]2(C)O[C@@]1(C(C)C)C[C@H]2OCc1ccccc1F [1-931, (1S,2R,4R,5R)-2-[(2-fluorophenyl)methoxy]-1-methyl-4-isopropyl-5-prop-2-ynoxy-7-oxabicyclo[2.2.1]heptane]
inhibition at 1200 g/ha [1]: ≥ 80%
